These compounds were tested against T1, HDAC6 enzyme (Homo sapiens, UniProt Q9UBN7) (assay: HDAC6 enzyme inhibitory assay (HDAC-Glo I/II Assay kit)). Conditions: 1 μM test compound; read-out: HDAC6 inhibitory rate (%) (1 μM).
T1 construct: prepared by transducing full length HDAC1 and HDAC6 genes into Sf-9 insect cells; GST; purchased SignalChem; host or cells: Sf-9 insect cells
T1 sequence (Q9UBN7 1-1215): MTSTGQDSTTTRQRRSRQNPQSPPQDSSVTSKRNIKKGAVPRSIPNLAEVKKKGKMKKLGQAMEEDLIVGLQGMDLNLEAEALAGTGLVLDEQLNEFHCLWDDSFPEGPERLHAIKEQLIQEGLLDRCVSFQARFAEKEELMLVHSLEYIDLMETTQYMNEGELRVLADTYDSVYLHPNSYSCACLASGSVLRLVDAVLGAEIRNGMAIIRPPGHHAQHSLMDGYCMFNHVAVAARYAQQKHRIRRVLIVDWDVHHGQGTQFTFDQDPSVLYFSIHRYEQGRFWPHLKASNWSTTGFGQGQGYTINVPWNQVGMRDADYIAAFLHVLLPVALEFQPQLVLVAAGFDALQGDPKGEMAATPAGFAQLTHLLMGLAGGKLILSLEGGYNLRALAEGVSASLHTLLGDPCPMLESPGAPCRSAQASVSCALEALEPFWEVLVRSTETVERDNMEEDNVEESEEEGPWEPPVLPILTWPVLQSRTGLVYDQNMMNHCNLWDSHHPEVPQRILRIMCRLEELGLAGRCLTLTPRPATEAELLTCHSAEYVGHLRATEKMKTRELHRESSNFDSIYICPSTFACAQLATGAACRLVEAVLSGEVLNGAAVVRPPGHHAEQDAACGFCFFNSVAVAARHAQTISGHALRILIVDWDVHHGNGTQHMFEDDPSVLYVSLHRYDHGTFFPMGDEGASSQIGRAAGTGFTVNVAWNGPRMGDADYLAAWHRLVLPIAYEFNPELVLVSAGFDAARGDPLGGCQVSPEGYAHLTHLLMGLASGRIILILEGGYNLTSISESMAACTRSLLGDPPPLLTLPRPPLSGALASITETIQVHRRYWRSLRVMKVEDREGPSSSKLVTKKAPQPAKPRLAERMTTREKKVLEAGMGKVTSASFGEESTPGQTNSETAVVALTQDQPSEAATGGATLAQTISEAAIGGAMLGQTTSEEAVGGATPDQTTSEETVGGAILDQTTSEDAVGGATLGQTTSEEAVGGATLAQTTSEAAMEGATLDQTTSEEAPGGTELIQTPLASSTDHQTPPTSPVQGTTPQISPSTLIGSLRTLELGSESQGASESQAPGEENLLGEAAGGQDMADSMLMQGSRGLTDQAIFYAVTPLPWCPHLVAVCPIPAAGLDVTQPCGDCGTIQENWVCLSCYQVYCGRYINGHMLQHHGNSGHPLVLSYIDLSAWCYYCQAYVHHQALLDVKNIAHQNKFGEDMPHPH
Format: biochemical
Procedure: HDAC1 enzyme and HDAC6 enzyme each prepared by transducing full length HDAC1 and HDAC6 genes into Sf-9 insect cells and purifying by GST affinity column were purchased from SignalChem. Using these enzymes, HDAC1 and/or HDAC6 enzyme inhibitory activities of the compound of the present invention were evaluated. Enzymes were used after preserved at −70° C. HDAC1 or HDAC6 enzyme inhibitory activity of the compound of the present invention was measured using HDAC-Glo™ I/II Assay kit (Promega) according to the following experimental method. The test compound diluted with assay buffer (24 mM Tris-HCl (pH 7.5), 1 mM MgCl2, 0.35 mM KCl, 135 mM NaCl, 0.6 mM Glutathione, 0.01% Tween-20) was added to a 384-well plate by each 2 μL. Then, HDAC1 or HDAC6 enzyme solution diluted with assay buffer was added thereto by each 4 μL, and the plate was incubated at room temperature for 60 min. After incubated, HDAC substrate-Developer solution prepared according to Promega protocol attached to the assay kit was added to the 384-well plate by each 2 μL, and the enzyme reaction was started. After reacting at room temperature for 20 min, luminescence level was measured using plate reader Envision (PerkinElmer). The inhibitory activity of each compound was calculated as a relative activity value when luminescence level in wells without enzyme is considered as 100% inhibition.

SMILES | inhibition at 1 µM [%]
O=C(NCC1COCCN1C(=O)c1ccc(-c2ccccc2)cc1)c1ccc(-c2noc(C(F)(F)F)n2)s1 (centres unmarked) [Example 223, N-((4-(biphenyl-4-ylcarbonyl)morpholin-3-yl)methyl)-5-(5-(trifluoromethyl)-1,2,4-oxadiazol-3-yl)thiophene-2-carboxamide] | 93
O=C(NCC1COCCN1C(=O)c1cc(F)cc(F)c1)c1ccc(-c2noc(C(F)(F)F)n2)s1 (centres unmarked) [Example 213, N-((4-(3,5-difluorobenzoyl)morpholin-3-yl)methyl)-5-(5-(trifluoromethyl)-1,2,4-oxadiazol-3-yl)thiophene-2-carboxamide] | 95
Cn1cnc(C(=O)N2CCOCC2CNC(=O)c2ccc(-c3noc(C(F)(F)F)n3)s2)c1 (centres unmarked) [Example 234, N-((4-((1-methyl-1H-imidazol-4-yl)carbonyl)morpholin-3-yl)methyl)-5-(5-(trifluoromethyl)-1,2,4-oxadiazol-3-yl)thiophene-2-carboxamide] | 38
O=C(NCC1COCCN1C(=O)c1ccccc1)c1ccc(-c2noc(C(F)(F)F)n2)nc1 (centres unmarked) [Example 180, N-((4-benzoylmorpholin-3-yl)methyl)-6-(5-(trifluoromethyl)-1,2,4-oxadiazol-3-yl)nicotinamide] | 91
O=C(NCC1Cc2ccccc2N1C(=O)C1CC1)c1ccc(-c2noc(C(F)(F)F)n2)cc1 (centres unmarked) [Example 166, N-((1-(cyclopropylcarbonyl)-2,3-dihydro-1H-indol-2-yl)methyl)-4-(5-(trifluoromethyl)-1,2,4-oxadiazol-3-yl)benzamide] | 98
O=C(NCC1COCCN1C(=O)c1ccccc1-c1ccccc1)c1ccc(-c2noc(C(F)(F)F)n2)s1 (centres unmarked) [Example 221, N-((4-(biphenyl-2-ylcarbonyl)morpholin-3-yl)methyl)-5-(5-(trifluoromethyl)-1,2,4-oxadiazol-3-yl)thiophene-2-carboxamide] | 91
O=C(NCC1COCCN1C(=O)c1ccccc1N1CCOCC1)c1ccc(-c2noc(C(F)(F)F)n2)s1 (centres unmarked) [Example 220, N-((4-(2-(morpholin-4-yl)benzoyl)morpholin-3-yl)methyl)-5-(5-(trifluoromethyl)-1,2,4-oxadiazol-3-yl)thiophene-2-carboxamide] | 94
O=C(NCC1COCCN1C(=O)c1cccc(Cl)c1)c1ccc(-c2noc(C(F)(F)F)n2)s1 (centres unmarked) [Example 215, N-((4-(3-chlorobenzoyl)morpholin-3-yl)methyl)-5-(5-(trifluoromethyl)-1,2,4-oxadiazol-3-yl)thiophene-2-carboxamide] | 94
O=C(NCC1c2ccccc2CN1C(=O)c1ccccc1)c1ccc(-c2noc(C(F)(F)F)n2)cc1 (centres unmarked) [Example 170, N-((2-benzoyl-2,3-dihydro-1H-isoindol-1-yl)methyl)-4-(5-(trifluoromethyl)-1,2,4-oxadiazol-3-yl)benzamide] | 80
O=C(NCC1COCCN1C(=O)Cc1cccs1)c1ccc(-c2noc(C(F)(F)F)n2)s1 (centres unmarked) [Example 245, N-((4-(2-thienylacetyl)morpholin-3-yl)methyl)-5-(5-(trifluoromethyl)-1,2,4-oxadiazol-3-yl)thiophene-2-carboxamide] | 95

More lines, now with the values ahead:

inhibition at 1 µM [%] | SMILES
93 | O=C(NC[C@H]1COCCN1C(=O)COc1ccccc1)c1ccc(-c2noc(C(F)(F)F)n2)cc1 [Example 58, N-(((3S)-4-(phenoxyacetyl)morpholin-3-yl)methyl)-4-(5-(trifluoromethyl)-1,2,4-oxadiazol-3-yl)benzamide]
95 | Cc1cc(C(=O)N2CCOC[C@@H]2CNC(=O)c2ccc(-c3noc(C(F)(F)F)n3)cc2)cc(O)n1 [Example 50, N-(((3S)-4-(2-hydroxy-6-methylisonicotinoyl)morpholin-3-yl)methyl)-4-(5-(trifluoromethyl)-1,2,4-oxadiazol-3-yl)benzamide]
92 | Cc1nnsc1C(=O)N1CCOC[C@H]1CNC(=O)c1ccc(-c2noc(C(F)(F)F)n2)cc1 [Example 140, N-(((3R)-4-((4-methyl-1,2,3-thiadiazol-5-yl)carbonyl)morpholin-3-yl)methyl)-4-(5-(trifluoromethyl)-1,2,4-oxadiazol-3-yl)benzamide]
94 | O=C(NCC1Cc2ccccc2CN1C(=O)C1CC1)c1ccc(-c2noc(C(F)(F)F)n2)cc1 (centres unmarked) [Example 174, N-((2-(cyclopropylcarbonyl)-1,2,3,4-tetrahydroisoquinolin-3-yl)methyl)-4-(5-(trifluoromethyl)-1,2,4-oxadiazol-3-yl)benzamide]
90 | O=C(NC[C@@H]1COCCN1C(=O)C1CCc2ccccc2O1)c1ccc(-c2noc(C(F)(F)F)n2)cc1 (stereo partly drawn) [Example 124, N-(((3R)-4-(3,4-dihydro-2H-chromen-2-ylcarbonyl)morpholin-3-yl)methyl)-4-(5-(trifluoromethyl)-1,2,4-oxadiazol-3-yl)benzamide]
94 | O=C(NC[C@H]1COCCN1C(=O)C1CCc2ccccc2O1)c1ccc(-c2noc(C(F)(F)F)n2)cn1 (stereo partly drawn) [Example 199, N-(((3S)-4-(3,4-dihydro-2H-chromen-2-ylcarbonyl)morpholin-3-yl)methyl)-5-(5-(trifluoromethyl)-1,2,4-oxadiazol-3-yl)pyridine-2-carboxamide]
86 | O=C(NCC1COCCN1C(=O)Nc1ccccc1)c1ccc(-c2noc(C(F)(F)F)n2)cc1 (centres unmarked) [Example 2, N-phenyl-3-(((4-(5-(trifluoromethyl)-1,2,4-oxadiazol-3-yl)benzoyl)amino)methyl)morpholine-4-carboxamide]
91 | N#Cc1cccc(C(=O)N2CCOCC2CNC(=O)c2ccc(-c3noc(C(F)(F)F)n3)cc2)c1 (stereo in doubt) [Example 116, N-(((3R)-4-(3-cyanobenzoyl)morpholin-3-yl)methyl)-4-(5-(trifluoromethyl)-1,2,4-oxadiazol-3-yl)benzamide]
92 | COc1cccc(C(=O)N2CCOCC2CNC(=O)c2ccc(-c3noc(C(F)(F)F)n3)cc2)c1 (stereo in doubt) [Example 114, N-(((3R)-4-(3-methoxybenzoyl)morpholin-3-yl)methyl)-4-(5-(trifluoromethyl)-1,2,4-oxadiazol-3-yl)benzamide]
90 | O=C(NC[C@H]1COCCN1C(=O)CC1CC1)c1ccc(-c2noc(C(F)(F)F)n2)cc1 [Example 76, N-(((3S)-4-(cyclopropylacetyl)morpholin-3-yl)methyl)-4-(5-(trifluoromethyl)-1,2,4-oxadiazol-3-yl)benzamide]
94 | O=C(NC[C@H]1COCCN1C(=O)C1CCOC1)c1ccc(-c2noc(C(F)(F)F)n2)cc1 (stereo partly drawn) [Example 79, N-(((3S)-4-(tetrahydrofuran-3-ylcarbonyl)morpholin-3-yl)methyl)-4-(5-(trifluoromethyl)-1,2,4-oxadiazol-3-yl)benzamide]
93 | N#Cc1ccc(C(=O)N2CCOCC2CNC(=O)c2ccc(-c3noc(C(F)(F)F)n3)cc2)cc1 (stereo in doubt) [Example 117, N-(((3R)-4-(4-cyanobenzoyl)morpholin-3-yl)methyl)-4-(5-(trifluoromethyl)-1,2,4-oxadiazol-3-yl)benzamide]
95 | O=C(NC[C@@H]1COCCN1C(=O)c1ccc(OCC(F)(F)F)nc1)c1ccc(-c2noc(C(F)(F)F)n2)cc1 [Example 123, N-(((3R)-4-((6-(2,2,2-trifluoroethoxy)pyridin-3-yl)carbonyl)morpholin-3-yl)methyl)-4-(5-(trifluoromethyl)-1,2,4-oxadiazol-3-yl)benzamide]

From US10081624B2, “Heterocyclic compound” (Takeda Pharmaceutical Company Limited, priority 2014, dated 2018)
